The target in assay [1] is T1, Kinesin-like protein KIF11 (Homo sapiens, UniProt P52732).
T1 sequence (P52732 whole entry): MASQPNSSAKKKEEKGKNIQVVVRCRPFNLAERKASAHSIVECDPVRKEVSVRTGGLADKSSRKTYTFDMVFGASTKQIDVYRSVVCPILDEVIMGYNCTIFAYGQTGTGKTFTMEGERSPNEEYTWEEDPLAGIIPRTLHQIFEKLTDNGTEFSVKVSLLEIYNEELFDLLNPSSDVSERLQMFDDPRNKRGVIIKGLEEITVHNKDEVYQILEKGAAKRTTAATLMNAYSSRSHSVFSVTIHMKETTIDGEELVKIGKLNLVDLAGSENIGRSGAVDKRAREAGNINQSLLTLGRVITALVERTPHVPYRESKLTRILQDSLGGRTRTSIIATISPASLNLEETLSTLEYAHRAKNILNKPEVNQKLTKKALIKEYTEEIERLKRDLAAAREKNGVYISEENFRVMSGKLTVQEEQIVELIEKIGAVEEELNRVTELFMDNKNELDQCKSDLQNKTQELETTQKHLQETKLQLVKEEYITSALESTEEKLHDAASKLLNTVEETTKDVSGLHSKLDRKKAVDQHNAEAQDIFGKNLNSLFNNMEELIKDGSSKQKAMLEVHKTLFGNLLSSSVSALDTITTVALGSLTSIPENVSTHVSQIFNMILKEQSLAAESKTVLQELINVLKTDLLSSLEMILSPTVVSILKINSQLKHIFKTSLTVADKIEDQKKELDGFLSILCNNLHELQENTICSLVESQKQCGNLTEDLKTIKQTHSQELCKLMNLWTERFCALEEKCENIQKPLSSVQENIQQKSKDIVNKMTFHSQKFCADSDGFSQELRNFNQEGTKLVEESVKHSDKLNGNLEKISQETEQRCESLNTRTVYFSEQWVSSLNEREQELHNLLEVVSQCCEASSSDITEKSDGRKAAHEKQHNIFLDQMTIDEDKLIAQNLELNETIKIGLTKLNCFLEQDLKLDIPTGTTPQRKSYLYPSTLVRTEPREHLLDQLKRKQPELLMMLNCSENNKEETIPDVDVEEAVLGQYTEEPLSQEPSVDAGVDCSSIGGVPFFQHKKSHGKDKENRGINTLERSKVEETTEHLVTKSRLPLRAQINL
The experiment in a line: Inhibition of MT-stimulated EG5 ATPase activity (unknown origin) by pyruvate kinase/lactate dehydrogenase enzyme coupled photometric assay.

The target of assay [2] is T2, Kinesin-like protein KIF11 (Homo sapiens) (UniProt P52732).
T2 sequence (whole entry): T1 sequence (P52732 whole entry)
The experiment in a line: Inhibition of basal EG5 ATPase activity (unknown origin) by pyruvate kinase/lactate dehydrogenase enzyme coupled photometric assay.

Assay [3] addresses T1, Kinesin-like protein KIF11. In words: Inhibition EG5 (unknown origin).

Calls of active or inactive are those of the source. No cut-off for these calls is given here.

For the molecule `CC(=O)N1N=C(NC2=NC(=O)/C(=C/c3cccc(Cl)c3)S2)SC1(C)c1ccccc1` (configuration not stated), in assay [1] (read-out: IC50), the half-maximal inhibitory concentration (IC50) (commonly the concentration that gives 50% inhibition) was 47.8 µM. For the same molecule, the inhibition entry in assay [2] was “inactive”. The matching figures for `CC(=O)N1N=C(NC2=NC(=O)/C(=C/c3ccc(C)cc3)S2)SC1(C)c1ccccc1` (configuration not stated): 63.3 µM and “inactive”. `CC(=O)N1N=C(NC2=NC(=O)/C(=C/c3ccccc3)S2)SC1(C)c1ccccc1` (configuration not stated): the concentration for half-maximal inhibition (IC50) in assay [1] (read-out: IC50) worked out at 62.1 µM. Further, the inhibition result in assay [2] was “inactive”. Turning to `COc1ccc(/C=C2\SC(NC3=NN(C(C)=O)C(C)(c4ccccc4)S3)=NC2=O)cc1` (configuration not stated), the concentration for half-maximal inhibition (IC50) in assay [1] (read-out: IC50) amounted to 42.7 µM. The inhibition entry in assay [2] was “inactive”. For the molecule `CC(=O)C1=NN(c2cc(C)ccc2F)C[C@]1(CCCN(C)C)c1ccccc1`, in assay [3], the IC50 was determined as 0.0002 µM. Regarding `CC(=O)N1N=C(NC2=NC(=O)/C(=C/c3ccc([N+](=O)[O-])cc3)S2)SC1(C)c1ccccc1` (configuration not stated), the IC50 in assay [1] (read-out: IC50) stood at 20.2 µM. Further, the inhibition result in assay [2] was “inactive”. The molecule `CCNCCS(=O)(=O)NC[C@@]1(c2ccccc2)SC(NC(=O)C(C)(C)C)=NN1C(=O)C(C)(C)C` [LITRONESIB] registered an IC50 in assay [3] of 0.007 µM. For the molecule `COc1ccc(/C=C2\SC(NC3=NN(C(C)=O)C(C)(c4ccccc4)S3)=NC2=O)cc1OC` (configuration not stated), in assay [1] (read-out: IC50), the 50% inhibitory concentration (IC50) is 60 to 112 µM. In addition, in assay [2], the inhibition result is “inactive”.

Turning to `CC(=O)N1N=C(NC2=NC(=O)/C(=C/c3ccc(Br)cc3)S2)SC1(C)c1ccccc1` (configuration not stated), the IC50 in assay [1] (read-out: IC50) worked out at 39.2 µM. Besides, in assay [2], the inhibition entry is “inactive”. As for `COc1ccc(/C=C/C=C2\SC(NC3=NN(C(C)=O)C(C)(c4ccccc4)S3)=NC2=O)cc1` (configuration not stated), in assay [1] (read-out: IC50), the half-inhibitory concentration (IC50) was in the range of 90 to 414 µM. Also, the inhibition entry in assay [2] was “inactive”. On to `CC(=O)N1N=C(NC2=NC(=O)/C(=C/c3ccccc3Cl)S2)SC1(C)c1ccccc1` (configuration not stated), for which the 50% inhibitory concentration (IC50) in assay [1] (read-out: IC50) was 13.2 µM. For the same molecule, the inhibition entry in assay [2] is “inactive”.

On to `CC(=O)N1N=C(NC2=NC(=O)/C(=C/c3cccs3)S2)SC1(C)c1ccccc1` (configuration not stated), for which the IC50 in assay [1] (read-out: IC50) was determined as 133 µM. Moreover, the inhibition result in assay [2] is “inactive”. As to `CC(=O)N1N=C(NC2=NC(=O)/C(=C/c3ccccc3[N+](=O)[O-])S2)SC1(C)c1ccccc1` (configuration not stated), the 50% inhibitory concentration (IC50) entry in assay [1] is recorded as “Active”.

With `CC(=O)N1N=C(NC2=NC(=O)/C(=C/c3ccccc3F)S2)SC1(C)c1ccccc1` (configuration not stated), the IC50 in assay [1] (read-out: IC50) fell in the range of 70 to 133 µM. Further, the inhibition entry in assay [2] is “inactive”. For `COc1cccc(/C=C2\SC(NC3=NN(C(C)=O)C(C)(c4ccccc4)S3)=NC2=O)c1` (configuration not stated), the IC50 in assay [1] (read-out: IC50) stood at 51 µM. Further, the inhibition result in assay [2] is “inactive”. In the same order, the values of `CC(=O)N1N=C(NC2=NC(=O)/C(=C/c3ccc(OCc4ccccc4)cc3)S2)SC1(C)c1ccccc1` (configuration not stated) are 17.2 µM and “inactive”.

In the case of `CC(=O)N1N=C(NC2=NC(=O)/C(=C/c3ccccn3)S2)SC1(C)c1ccccc1` (configuration not stated), the concentration for half-maximal inhibition (IC50) in assay [1] (read-out: IC50) worked out at 120 µM. Further, the inhibition result in assay [2] is “inactive”.

Turning to `CC(=O)N1N=C(NC2=NC(=O)/C(=C/c3ccc(N(C)C)cc3)S2)SC1(C)c1ccccc1` (configuration not stated), the IC50 in assay [1] (read-out: IC50) lay within 90 to 252 µM. For the same molecule, in assay [2], the inhibition result was “inactive”. As to `CC(=O)N1N=C(NC2=NC(=O)/C(=C/C=C/c3ccccc3)S2)SC1(C)c1ccccc1` (configuration not stated), the 50% inhibitory concentration (IC50) in assay [1] (read-out: IC50) was 75 to 248 µM. Further, the inhibition entry in assay [2] is “inactive”. The matching figures for `CC(=O)N1N=C(NC2=NC(=O)/C(=C/c3cccc([N+](=O)[O-])c3)S2)SC1(C)c1ccccc1` (configuration not stated): 27.5 µM and “inactive”. In the same order, the values of `COc1cccc(/C=C2\SC(NC3=NN(C(C)=O)C(C)(c4ccccc4)S3)=NC2=O)c1OC` (configuration not stated) are 71.9 µM and “inactive”. In the case of `CC(=O)N1N=C(NC2=NC(=O)/C(=C/C=C/c3ccc(N(C)C)cc3)S2)SC1(C)c1ccccc1` (configuration not stated), the 50% inhibitory concentration (IC50) in assay [1] (read-out: IC50) is 129 µM. Moreover, the inhibition entry in assay [2] was “inactive”.

`CC(=O)N1N=C(NC2=NC(=O)/C(=C/c3ccc(Cl)cc3)S2)SC1(C)c1ccccc1` (configuration not stated): the IC50 in assay [1] (read-out: IC50) is 106 µM. Besides, in assay [2], the inhibition result is “inactive”. In the case of `CC1=C(C(=O)OC(C)C)C(c2ccc(Cl)cc2)n2c(s/c(=C\c3ccc(OCC(=O)O)cc3)c2=O)=N1` (configuration not stated), the midpoint of inhibition in assay [3], the IC50, lay at 4.6 µM.

Regarding `CC(=O)NC1=NN(C(C)=O)C(C)(c2ccccc2)S1` (configuration not stated), the 50% inhibitory concentration (IC50) in assay [1] (read-out: IC50) is 0.8 µM. In the case of `CC(=O)N1N=C(NC2=NC(=O)/C(=C/c3ccco3)S2)SC1(C)c1ccccc1` (configuration not stated), the IC50 in assay [1] (read-out: IC50) fell in the range of 120 to 331 µM. In addition, the inhibition result in assay [2] is “inactive”.

The record behind these values is ChEMBL document CHEMBL4229486, “Design and synthesis of novel thiadiazole-thiazolone hybrids as potential inhibitors of the human mitotic kinesin Eg5” (Bioorg Med Chem Lett, 2018).
